Measured values taken from patent US12281123B2, “Benzoxazinone compounds as KLK5/7 dual inhibitors” (MOLECULAR SKIN THERAPEUTICS, INC., priority 2019, dated 2025).
“Also recorded” adds a separate entry of the source. Marks after values point to notes of the source that are not given here.

Assays:
[1] = system: KLK proteases in human skin extract; assay: Inhibition of protease activity in human skin extract; format: biochemical
Method: Materials: The peptide substrates PS-01 (YRSR-pNA Tyr-Arg-Ser-Arg-pNA) (SEQ ID NO. 1) and PS-02 (Lys-His-Leu-Tyr-pNA) (SEQ ID NO. 2) were synthesized by Zamboni Chemical Solutions (Montreal, Canada). Human epidermis samples were obtained from Biopredic (Saint-Grégoire, France). The BCA protein assay kit was bought from VWR.
Preparation of skin extract: The epidermis was frozen and lyophilized. A sample of 15 mg lyophilized epidermis was immersed in 1 mL high salt buffer (100 mM Tris, 5 mM EDTA, 2M KCl, pH 8), frozen twice in dry ice and thawed. After incubation overnight at 4° C. and addition of six 2.4 mm metal beads, the sample was homogenized in a Bertin Precellys Homogenizer (Atkinson, NH) three times at […] for 20 seconds each and cooled in between for 30 seconds. After centrifugation at maximal speed in a desktop minifuge, the protein concentration of the supernatant was determined by BCA assay (˜0.5 mg/mL).
Inhibition of protease activity in skin extract: Stock solutions of 200, 66, 22 and 0 μM of the tested compound in DMSO were prepared. Substrate stocks of 1100 μM PS-01 and PS-02 were prepared by dissolving in water. The wells of a 384 well plate was filled with 50 μL 2× assay buffer (see above) and then 45 μL substrate stock and 5 μL of the test compound were added. The reaction was started by addition of 10 μL skin extract for the substrate PS-02 and 5 μL for the substrate PS-01. The substrate hydrolysis was monitored in multi-well plate reader at 405 nm.
Chromogenic substrate cleavage progressions of Compounds 1.001, 1.002, and 14 were tested according to human stratum corneum extract assay of Example 4 using KLK5 and KLK7 preferred chromogenic peptide substrates (PS-01 and PS-02). The proteolytic cleavage of KLK5 selective substrate in skin extract by Compounds 1.001, 1.002, and 14 are compared and shown in FIGS. 4A-4D. NSK refers to extract from skin freshly prepared; and OSK refers to extract from skin post freeze thaw.

proteases = assay: Chromogenic assay, protease panel (conclusion); format: biochemical; details: conclusion from Table 3, all proteases tested
Method: Assays: All assays were performed in 384 well polystyrene plates coated overnight with 0.1% Tween 20 at 4° C. The plates were then washed twice with 100 μL water and dried. For the determination of IC50 values, the inhibitors were diluted in serial dilutions of 1:3 intervals into pure DMSO at 50 fold of the intended final concentrations in the assays. Usually eight inhibitor dilutions and one DMSO control were prepared. The substrates were diluted into water at 2.2-fold the final concentration in the assay mixture. The wells of the plate were filled with 50 μL of the enzyme diluted in 2× assay buffer (100 mM Tris, 200 mM NaCl, 0.2% PEG, 0.01% Tween, 2 mM EDTA, pH 8.0) at twofold the intended concentration. Then 5 μL DMSO, 2.2 μL inhibitor and 45 μL substrate were added to start the reaction. The assays were monitored at 37° C. in a multi well plate reader at a wavelength of 405 nm (Molecular Devices, San Jose, CA) for 1 h. The tool inhibitor, nafamostat, was used as a control for trypsin, thrombin, KLK-5 and KLK-14 at 10 μM maximal concentration and (2-(2-fluorophenyl)-5,6,7,8-tetrahydro-4H-benzo[4,5]thieno[2,3-d][1,3]oxazin-4-one for KLK-7 at 5 μM. […]

[2] = human skin extract, Conc 3.3 μM

SMILES | Inhibition of proteolytic activity of skin extract, in words ([1]; compared to compounds 14 and 1.002, FIGS. 4A-4D (NSK), KLK5 selective substrate) | Initial rate of proteolytic activity ([1]; human skin extract, Conc 1 μM) | Initial rate of substrate hydrolysis ([1]; human skin extract, Conc 1 μM) | Initial rate of proteolytic activity [1, 2] | Initial rate of substrate hydrolysis [1, 2] | Rate in Skin Assay ([1]; human skin extract, compound concentration not given) | Inhibition of proteases, conclusion in words (proteases)
CS(=O)(=O)c1cc(CO)ccc1-c1nc2cc3c(cc2c(=O)o1)OCCO3 [Compound 1.001, 2-(4-(Hydroxymethyl)-2-(methylsulfonyl)phenyl)-7,8-dihydro-4H-[1,4]dioxino[2′,3′:4,5]benzo[1,2-d][1,3]oxazin-4-one] | more potent inhibition of proteolytic activity; also recorded: more potent inhibitor of the proteolytic activity of skin extract | 0.04* Absorbance405/min | 0.02* Absorbance405/min | 0.07* Absorbance405/min | 0.04* Absorbance405/min | 0.004* Absorbance405/min | 
CS(=O)(=O)c1cc(CO)ccc1C(=O)Nc1cc2c(cc1C(=O)O)OCCO2 [Compound 408, reference compound] |  |  |  |  |  |  | unable to inhibit proteases
